The target of one assay is SMOX (Homo sapiens (Human), UniProt Q9NWM0). Put plainly: Human SMOX assay (HyPerBlu chemiluminescent detection of hydrogen peroxide). The format is biochemical. As to conditions: 2.5 nM full length hSMOX, spermine substrate, 1 h at room temperature, luminescence read; read-out: SMOx_IC50. The method, then: (§1) The direct detection of hydrogen peroxide produced from the enzymatic reaction of hSMOX or hPAOX in a biochemical assay format was measured using HyPerBlu (Lumigen, Southfield, MI), a small molecule boronate probe that reacts with hydrogen peroxide to generate a chemiluminescent signal. Inhibition of hSMOX or hPAOX enzyme results in a decrease in luminescence.
Test compounds (75 nL) dissolved in DMSO were added to a 384-well white assay plate (Greiner Bio-one, catalog #784075) using an ECHO Acoustic Dispenser (Labcyte). Each compound was serially diluted 3-fold in DMSO to prepare an 11-point dose response curve (columns 1-22). Column 23 and 24 contained 75 nL of 2 mM chlorhexidine and DMSO, respectively, to represent the 100% inhibited versus the neutral control reactions.
Subsequently, 3 μL/well of the substrate solution prepared in assay buffer (10 mM Hepes, pH 7.4, 150 mM NaCl, 1 mM EGTA, 0.01% Pluronic F-127, 0.05% ovalbumin) was dispensed into the assay plate followed by 3 μL/well of full length hSMOX enzyme with an N-terminal His tag from E. coli prepared in assay buffer to initiate the reactions. After a 1 h incubation at room temperature, 6 μL/well of HyPerBlu was added. After a 30 min incubation, the hydrogen peroxide product generated from the hSMOX reactions was measured using an endpoint luminescence read on the PHERAStar FS/FSX microplate reader (BMG LABTECH).
The final assay conditions included 10 mM Hepes, pH 7.4, 150 mM NaCl, 1 mM EGTA, 0.01% Pluronic F-127, 0.05% ovalbumin, 2.5 nM hSMOX, 30 µM spermine, and 1.25% DMSO.
Dose-response curves were fit and compound IC50 values were determined using Genedata Screener (Genedata AG).

In another assay the target is hPAOX (Homo sapiens (Human), UniProt Q6QHF9). Put plainly: Human PAOX assay (HyPerBlu chemiluminescent detection of hydrogen peroxide). The assay is classed as biochemical. As to conditions: 60 pM recombinant PAOX, 20 μM N-acetylspermine substrate. The protocol: as §1
The hPAOX assay was run and the data analyzed similarly to the hSMOX assay described above, except the reactions contained 60 pM recombinant PAOX with an N-terminal His tag expressed from sf9 insect cells and used 20 μM N-acetylspermine as the substrate.

Molecules are shown by their SMILES. Counter-ions that a name gives are not always drawn.

Sequence of hPAOX (Q6QHF9 whole entry): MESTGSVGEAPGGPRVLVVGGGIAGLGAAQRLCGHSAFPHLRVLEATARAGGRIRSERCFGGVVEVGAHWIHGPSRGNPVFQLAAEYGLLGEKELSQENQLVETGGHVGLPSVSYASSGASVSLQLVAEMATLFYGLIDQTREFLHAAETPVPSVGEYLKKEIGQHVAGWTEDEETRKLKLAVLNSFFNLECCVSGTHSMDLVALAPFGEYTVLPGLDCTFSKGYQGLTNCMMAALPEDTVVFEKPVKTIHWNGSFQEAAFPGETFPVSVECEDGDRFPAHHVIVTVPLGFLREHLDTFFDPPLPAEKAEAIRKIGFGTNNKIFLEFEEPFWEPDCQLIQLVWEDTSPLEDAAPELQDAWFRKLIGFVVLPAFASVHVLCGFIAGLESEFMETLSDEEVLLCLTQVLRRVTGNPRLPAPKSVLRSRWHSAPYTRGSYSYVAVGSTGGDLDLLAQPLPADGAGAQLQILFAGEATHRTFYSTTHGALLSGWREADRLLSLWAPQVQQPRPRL
Sequence of SMOX (Q9NWM0 whole entry): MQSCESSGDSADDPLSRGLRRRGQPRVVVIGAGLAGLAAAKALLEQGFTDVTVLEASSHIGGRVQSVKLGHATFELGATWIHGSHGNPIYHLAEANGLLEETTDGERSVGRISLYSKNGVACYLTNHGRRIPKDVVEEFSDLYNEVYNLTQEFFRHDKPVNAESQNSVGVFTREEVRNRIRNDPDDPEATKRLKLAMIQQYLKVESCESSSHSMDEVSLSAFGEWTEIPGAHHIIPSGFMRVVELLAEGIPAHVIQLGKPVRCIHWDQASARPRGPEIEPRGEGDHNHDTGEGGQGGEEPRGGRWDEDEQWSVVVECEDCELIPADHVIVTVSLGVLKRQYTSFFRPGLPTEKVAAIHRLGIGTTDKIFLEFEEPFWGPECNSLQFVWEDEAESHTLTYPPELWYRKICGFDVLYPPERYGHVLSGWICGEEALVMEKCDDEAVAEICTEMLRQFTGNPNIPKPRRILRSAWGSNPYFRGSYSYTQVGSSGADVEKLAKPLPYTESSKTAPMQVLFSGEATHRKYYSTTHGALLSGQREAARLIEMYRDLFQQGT

For the compound `Cc1c(C(=O)NC2CN(C)C2)nn2c(-c3ccccc3)cc(-c3ccccc3)nc12` [Example 50, 3-Methyl-N-(1-methylazetidin-3-yl)-5,7-diphenylpyrazolo[1,5-a]pyrimidine-2-carboxamide], the results for the IC50 on SMOX and at hPAOX were 110 nM and 3130 nM, respectively.
`Cc1c(C(=O)NC2CCN(C)C2)nn2c(-c3ccccc3)cc(-c3ccccc3)nc12` (stereo not drawn) [Example 51, 3-Methyl-N-(1-methylpyrrolidin-3-yl)-5,7-diphenylpyrazolo[1,5-a]pyrimidine-2-carboxamide]: the values for the IC50 at SMOX and on hPAOX were 821 nM and 7710 nM, respectively.
The like results for `CN1CC(NC(=O)c2nn3c(-c4ccccc4)cc(-c4ccccc4)nc3c2F)C1` [Example 52, 3-Fluoro-N-(1-methylazetidin-3-yl)-5,7-diphenylpyrazolo[1,5-a]pyrimidine-2-carboxamide] were, in that order, 215 nM and 1920 nM.
The like results for `CN1CC(NC(=O)c2nn3c(-c4ccccc4)cc(-c4ccccc4)nc3c2C#N)C1` [Example 53, 3-Cyano-N-(1-methylazetidin-3-yl)-5,7-diphenylpyrazolo[1,5-a]pyrimidine-2-carboxamide] were, in that order, 273 nM and 13300 nM.
Consider `Cc1c(C(=O)NCC2(C)CCN(C)C2)nn2c(-c3ccccc3)cc(-c3ccccc3)nc12` (stereo not drawn) [Example 54, N-((1,3-Dimethylpyrrolidin-3-yl)methyl)-3-methyl-5,7-diphenylpyrazolo[1,5-a]pyrimidine-2-carboxamide], for which the IC50 at SMOX came to 1490 nM; at hPAOX, 30300 nM.
The like results for `CC1C(NC(=O)c2cc3nc(-c4ccccc4)cc(-c4ccccc4)n3n2)CN1C` (stereo not drawn) [Example 55, N-(1,2-Dimethylazetidin-3-yl)-5,7-diphenylpyrazolo[1,5-a]pyrimidine-2-carboxamide] were, in that order, 593 nM and 6530 nM.
The like results for `O=C(NCCCn1ccnc1)c1cc2nc(-c3ccccc3)cc(N3CCC3)n2n1` [Example 56, N-(3-(1H-Imidazol-1-yl)propyl)-7-(azetidin-1-yl)-5-phenylpyrazolo[1,5-a]pyrimidine-2-carboxamide] were, in that order, 874 nM and 3730 nM.
Regarding `O=C(NCCCn1ccnc1)c1cc2nc(-c3ccccc3)cc(N3CCOCC3)n2n1` [Example 59, N-(3-(1H-Imidazol-1-yl)propyl)-7-morpholino-5-phenylpyrazolo[1,5-a]pyrimidine-2-carboxamide], the IC50 on SMOX is 2880 nM; on hPAOX, 5710 nM.
Consider `CN1CCN(c2cc(-c3ccccc3)nc3cc(C(=O)NCCCn4ccnc4)nn23)CC1` [Example 60, N-(3-(1H-Imidazol-1-yl)propyl)-7-(4-methylpiperazin-1-yl)-5-phenylpyrazolo[1,5-a]pyrimidine-2-carboxamide], for which the figures for the IC50 on SMOX and at hPAOX were greater than 31200 nM and 24800 nM, respectively.
In the case of `O=C(NCCCn1ccnc1)c1cc2nc(-c3ccccc3)cc(N3CC4CC4C3)n2n1` (stereo not drawn) [Example 61, N-(3-(1H-Imidazol-1-yl)propyl)-7-(3-azabicyclo[3.1.0]hexan-3-yl)-5-phenylpyrazolo[1,5-a]pyrimidine-2-carboxamide], the IC50 came out at 486 nM on SMOX and 3930 nM on hPAOX.
In the case of `O=C(NCCCn1ccnc1)c1cc2nc(-c3ccccc3)cc(NC3CCC3)n2n1` [Example 64, N-(3-(1H-Imidazol-1-yl)propyl)-7-(cyclobutylamino)-5-phenylpyrazolo[1,5-a]pyrimidine-2-carboxamide], the figures for the IC50 on SMOX and at hPAOX were 779 nM and 1460 nM, respectively.
For the compound `O=C(NCCCn1ccnc1)c1cc2nc(-c3ccccc3)cc(NC3CCCC3)n2n1` [Example 65, N-(3-(1H-imidazol-1-yl)propyl)-7-(cyclopentylamino)-5-phenylpyrazolo[1,5-a]pyrimidine-2-carboxamide], the IC50 was found to be 595 nM on SMOX and 2450 nM on hPAOX.
As to `O=C(NCCCn1ccnc1)c1cc2nc(-c3ccccc3)cc(N3CCCC3)n2n1` [Example 66, N-(3-(1H-imidazol-1-yl)propyl)-5-phenyl-7-(pyrrolidin-1-yl)pyrazolo[1,5-a]pyrimidine-2-carboxamide], the IC50 was 395 nM at SMOX and 2500 nM at hPAOX.
Take `CN1CC(NC(=O)c2cc3nc(-c4ccccc4)cc(N4CCC[C@@H](O)C4)n3n2)C1` [Example 67, (R)-7-(3-hydroxypiperidin-1-yl)-N-(1-methylazetidin-3-yl)-5-phenylpyrazolo[1,5-a]pyrimidine-2-carboxamide]: the IC50 on SMOX stood at 177 nM; on hPAOX it was 3600 nM.
The like results for `CN(C)CCCNC(=O)c1cc2nc(-c3ccccc3)cc(N3CCCCC3)n2n1` [Example 70, N-(3-(dimethylamino)propyl)-5-phenyl-7-(piperidin-1-yl)pyrazolo[1,5-a]pyrimidine-2-carboxamide] were, in that order, 930 nM and 3360 nM.
With `CN1CCC(NC(=O)c2cc3nc(-c4ccccc4)cc(N4CCCCC4)n3n2)C1` (stereo not drawn) [Example 71, N-(1-methylpyrrolidin-3-yl)-5-phenyl-7-(piperidin-1-yl)pyrazolo[1,5-a]pyrimidine-2-carboxamide trifluoroacetate], the figures for the IC50 at SMOX and on hPAOX were 988 nM and 5360 nM, respectively.
The like results for `CN1CCC(NC(=O)c2cc3nc(-c4ccccc4)cc(N4CCCCC4)n3n2)CC1` [Example 74, N-(1-methylpiperidin-4-yl)-5-phenyl-7-(piperidin-1-yl)pyrazolo[1,5-a]pyrimidine-2-carboxamide] were, in that order, 17700 nM and 9830 nM.
The like results for `CC(C)Oc1cc(-c2ccccc2)nc2cc(C(=O)NC3CN(C)C3)nn12` [Example 75, 7-isopropoxy-N-(1-methylazetidin-3-yl)-5-phenylpyrazolo[1,5-a]pyrimidine-2-carboxamide] were, in that order, 737 nM and 26700 nM.
The like results for `CN1CC(NC(=O)c2cc3nc(-c4ccccc4)cc(Oc4ccccc4)n3n2)C1` [Example 76, N-(1-methylazetidin-3-yl)-7-phenoxy-5-phenylpyrazolo[1,5-a]pyrimidine-2-carboxamide] were, in that order, 725 nM and 5370 nM.
`CC(=O)Nc1cccc(-c2cc(-c3ccccc3)nc3cc(C(=O)NCCCn4ccnc4)nn23)c1` [Example 77, N-(3-(1H-imidazol-1-yl)propyl)-7-(3-acetamidophenyl)-5-phenylpyrazolo[1,5-a]pyrimidine-2-carboxamide]: the IC50 came to 519 nM on SMOX and 544 nM on hPAOX.
Regarding `COc1ccccc1-c1cc(-c2ccccc2)nc2cc(C(=O)NCCCn3ccnc3)nn12` [Example 80, N-(3-(1H-imidazol-1-yl)propyl)-7-(2-methoxyphenyl)-5-phenylpyrazolo[1,5-a]pyrimidine-2-carboxamide], the values for the IC50 at SMOX and on hPAOX were 285 nM and 289 nM, respectively.
The like results for `COc1cccc(-c2cc(-c3ccccc3)nc3cc(C(=O)NCCCn4ccnc4)nn23)c1` [Example 82, N-(3-(1H-imidazol-1-yl)propyl)-7-(3-methoxyphenyl)-5-phenylpyrazolo[1,5-a]pyrimidine-2-carboxamide] were, in that order, 256 nM and 291 nM.
The like results for `Cc1ccc(-c2cc(-c3ccccc3)nc3cc(C(=O)NCCCn4ccnc4)nn23)cc1` [Example 83, N-(3-(1H-imidazol-1-yl)propyl)-5-phenyl-7-(p-tolyl)pyrazolo[1,5-a]pyrimidine-2-carboxamide] were, in that order, 681 nM and 818 nM.
For the compound `O=C(NCCCn1ccnc1)c1cc2nc(-c3ccccc3)cc(-c3ccc4nonc4c3)n2n1` [Example 84, N-(3-(1H-imidazol-1-yl)propyl)-7-(benzo[c][1,2,5]oxadiazol-5-yl)-5-phenylpyrazolo[1,5-a]pyrimidine-2-carboxamide], the IC50 on SMOX turned out to be 330 nM; at hPAOX it was 1310 nM.
As to `Cn1ccc(-c2cc(-c3ccccc3)nc3cc(C(=O)NCCCn4ccnc4)nn23)n1` [Example 85, N-(3-(1H-imidazol-1-yl)propyl)-7-(1-methyl-1H-pyrazol-3-yl)-5-phenylpyrazolo[1,5-a]pyrimidine-2-carboxamide], the values for the IC50 on SMOX and on hPAOX were 812 nM and 2370 nM, respectively.
The like results for `O=C(NCCCn1ccnc1)c1cc2nc(-c3ccccc3)cc(-c3cccc(O)c3)n2n1` [Example 87, N-(3-(1H-imidazol-1-yl)propyl)-7-(3-hydroxyphenyl)-5-phenylpyrazolo[1,5-a]pyrimidine-2-carboxamide] were, in that order, 303 nM and 387 nM.
With `CN1CC(NC(=O)c2cc3nc(-c4ccccc4)cc(-c4ncccn4)n3n2)C1` [Example 93, N-(1-methylazetidin-3-yl)-5-phenyl-7-(pyrimidin-2-yl)pyrazolo[1,5-a]pyrimidine-2-carboxamide], the IC50 at SMOX was 996 nM; at hPAOX, 643 nM.

(Values after US20250161307A1, “PYRAZOLOPYRIMIDINES AS MODULATORS OF SPERMINE OXIDASE” (Janssen Pharmaceutica NV, priority 2022, published 2025).)
